The term IC50 denotes the point on the concentration scale where inhibition reaches its midpoint.

Data set [1] addresses T1, Kv2.1 (Homo sapiens, UniProt Q14721).
T1 sequence (Q14721 1-858): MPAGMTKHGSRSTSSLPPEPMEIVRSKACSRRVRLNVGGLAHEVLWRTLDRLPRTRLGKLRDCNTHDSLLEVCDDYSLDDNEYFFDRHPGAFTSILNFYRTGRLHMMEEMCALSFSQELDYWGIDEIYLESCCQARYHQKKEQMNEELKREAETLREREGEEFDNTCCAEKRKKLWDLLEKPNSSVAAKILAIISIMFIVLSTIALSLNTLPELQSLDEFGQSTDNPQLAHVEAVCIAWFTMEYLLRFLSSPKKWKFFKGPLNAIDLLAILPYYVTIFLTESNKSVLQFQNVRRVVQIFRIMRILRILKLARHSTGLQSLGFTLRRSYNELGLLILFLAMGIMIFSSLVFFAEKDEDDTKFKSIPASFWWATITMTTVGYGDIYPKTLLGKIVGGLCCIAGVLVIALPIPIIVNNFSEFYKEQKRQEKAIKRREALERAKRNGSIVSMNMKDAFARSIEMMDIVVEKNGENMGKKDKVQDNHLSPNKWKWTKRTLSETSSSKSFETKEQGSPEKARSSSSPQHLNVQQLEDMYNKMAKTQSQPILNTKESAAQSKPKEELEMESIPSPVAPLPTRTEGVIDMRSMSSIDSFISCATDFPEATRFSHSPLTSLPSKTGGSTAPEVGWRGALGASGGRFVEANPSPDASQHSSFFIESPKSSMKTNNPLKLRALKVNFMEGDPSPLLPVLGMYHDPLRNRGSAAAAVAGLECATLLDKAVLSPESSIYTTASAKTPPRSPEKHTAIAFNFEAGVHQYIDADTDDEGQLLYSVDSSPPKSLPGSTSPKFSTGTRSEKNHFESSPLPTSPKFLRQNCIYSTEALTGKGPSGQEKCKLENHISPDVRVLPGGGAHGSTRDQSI
Briefly: Kv2.1 channels. It counts as cell-based. Particulars: concentrations up to 10 μM, unpublished data.

Data set [2] has as its target T2, hEag1 channels (Homo sapiens, UniProt O95259).
T2 sequence (O95259 1-989): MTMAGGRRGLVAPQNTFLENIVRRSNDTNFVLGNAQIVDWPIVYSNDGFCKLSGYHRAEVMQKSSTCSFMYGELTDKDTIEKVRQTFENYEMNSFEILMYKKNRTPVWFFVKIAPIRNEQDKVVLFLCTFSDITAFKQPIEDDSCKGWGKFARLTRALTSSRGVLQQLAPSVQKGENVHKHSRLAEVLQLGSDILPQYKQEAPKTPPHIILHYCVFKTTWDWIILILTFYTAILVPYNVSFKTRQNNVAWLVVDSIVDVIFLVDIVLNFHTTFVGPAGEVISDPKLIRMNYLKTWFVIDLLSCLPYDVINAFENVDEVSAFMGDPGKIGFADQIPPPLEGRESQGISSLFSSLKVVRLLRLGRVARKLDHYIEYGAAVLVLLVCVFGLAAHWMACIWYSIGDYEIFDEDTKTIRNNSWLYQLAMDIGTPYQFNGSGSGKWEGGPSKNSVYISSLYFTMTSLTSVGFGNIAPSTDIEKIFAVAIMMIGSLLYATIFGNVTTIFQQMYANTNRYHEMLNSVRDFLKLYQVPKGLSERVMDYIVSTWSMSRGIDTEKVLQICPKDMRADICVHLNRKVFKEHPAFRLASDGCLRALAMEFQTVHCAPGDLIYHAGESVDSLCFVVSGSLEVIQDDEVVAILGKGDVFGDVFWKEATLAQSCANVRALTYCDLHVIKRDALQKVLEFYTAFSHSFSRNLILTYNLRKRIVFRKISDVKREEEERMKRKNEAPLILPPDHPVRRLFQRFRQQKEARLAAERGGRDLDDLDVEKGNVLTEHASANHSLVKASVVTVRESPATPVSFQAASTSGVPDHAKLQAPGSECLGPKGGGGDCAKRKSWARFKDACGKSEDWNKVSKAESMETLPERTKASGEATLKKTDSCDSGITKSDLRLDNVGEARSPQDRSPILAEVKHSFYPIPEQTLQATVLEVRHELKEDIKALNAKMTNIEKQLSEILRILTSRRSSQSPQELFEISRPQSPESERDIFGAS
Briefly: hEag1 channels expressed in Xenopus oocytes. It counts as cell-based.

Data set [3] has as its system cloned HERG. Particulars: HEK-293 cells; ref Zhou et al., 1999; cited from earlier work.
Data set [4] has as its target T3, hEag2 channels (Homo sapiens, UniProt Q8NCM2).
T3 sequence (Q8NCM2 1-988): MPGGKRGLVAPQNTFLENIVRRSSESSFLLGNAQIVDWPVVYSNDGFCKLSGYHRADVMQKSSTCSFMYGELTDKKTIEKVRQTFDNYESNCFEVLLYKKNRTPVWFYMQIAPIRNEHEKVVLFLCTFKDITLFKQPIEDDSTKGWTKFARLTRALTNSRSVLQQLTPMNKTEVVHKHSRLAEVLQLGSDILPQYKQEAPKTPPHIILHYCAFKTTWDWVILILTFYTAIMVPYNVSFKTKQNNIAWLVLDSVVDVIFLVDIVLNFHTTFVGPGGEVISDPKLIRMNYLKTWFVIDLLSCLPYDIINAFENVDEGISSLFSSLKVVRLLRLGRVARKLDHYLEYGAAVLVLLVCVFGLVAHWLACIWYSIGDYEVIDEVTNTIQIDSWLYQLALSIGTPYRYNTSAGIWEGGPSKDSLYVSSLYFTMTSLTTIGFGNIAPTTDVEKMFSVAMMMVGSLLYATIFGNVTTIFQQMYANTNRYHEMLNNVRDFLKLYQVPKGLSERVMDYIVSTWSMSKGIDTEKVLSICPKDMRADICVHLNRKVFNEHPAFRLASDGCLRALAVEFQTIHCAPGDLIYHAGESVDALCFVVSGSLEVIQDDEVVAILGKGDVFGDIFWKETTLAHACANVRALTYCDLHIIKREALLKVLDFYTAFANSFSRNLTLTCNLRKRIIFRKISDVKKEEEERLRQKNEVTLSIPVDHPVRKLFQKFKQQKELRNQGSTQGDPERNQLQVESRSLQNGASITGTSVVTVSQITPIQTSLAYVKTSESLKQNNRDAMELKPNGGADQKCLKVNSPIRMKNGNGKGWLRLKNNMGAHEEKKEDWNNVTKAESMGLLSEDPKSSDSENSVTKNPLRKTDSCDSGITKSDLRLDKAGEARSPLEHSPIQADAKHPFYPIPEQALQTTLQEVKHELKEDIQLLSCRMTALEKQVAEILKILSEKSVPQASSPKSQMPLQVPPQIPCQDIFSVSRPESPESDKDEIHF
Briefly: hEag2 channels expressed in Xenopus oocytes. It counts as cell-based.

For data set [5], the system named is cardiac IsK currents. Particulars: concentrations up to 10 μM; ref Suessbrich et al., 1996; cited from earlier work.

For the molecule `COc1ccc(CCN2CCC(Nc3nc4ccccc4n3Cc3ccc(F)cc3)CC2)cc1` [astemizole], the effect on current entry in data set [1] and in data set [5] was “no significant effects” throughout. The IC50 in data set [2] was roughly 1.5 µM; in data set [3], 0.0009 µM; in data set [4] it was roughly 1.5 µM.

Values taken from PMC2233905 (The Journal of General Physiology, 2004).
